In PubChem BioAssay AID330 (DTP/NCI, 2004):
Values joined by “and” are separate entries in the source; they are usually repeats but may differ in a detail not shown here. Equal values may be shown once. Inconclusive results and toxic doses are left out.

Tested on: P388 leukemia ip, CD2F1 mice, survival T/C
Assay: NCI In Vivo Anticancer Drug Screen. Data for tumor model P388 Leukemia (intraperitoneal) in CD2F1 (CDF1) mice
Conditions: endpoint: median survival time, higher = longer survival
Procedure, shortened: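 Mice carrying the transplanted tumor received test compound or vehicle. Survival was recorded in each group, and the value is the treated-group measurement divided by that of the vehicle-treated control group.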

[1] = dose: 12.5 mg/kg/injection, schedule: Q01DX005 (ip), vehicle: Klucel (hydroxypropylcellulose) (HPC)
[2] = dose: 25.0 mg/kg/injection, schedule: Q01DX005 (ip), vehicle: Klucel (hydroxypropylcellulose) (HPC)
[3] = dose: 50.0 mg/kg/injection, schedule: Q01DX005 (ip), vehicle: Klucel (hydroxypropylcellulose) (HPC)
[4] = dose: 100.0 mg/kg/injection, schedule: Q01DX005 (ip), vehicle: Klucel (hydroxypropylcellulose) (HPC)
[5] = dose: 200.0 mg/kg/injection, schedule: Q01DX005 (ip), vehicle: Klucel (hydroxypropylcellulose) (HPC)
[6] = dose: 100.0 mg/kg/injection, schedule: Q04DX002 (ip), vehicle: saline with Tween-80
[7] = dose: 200.0 mg/kg/injection, schedule: Q04DX002 (ip), vehicle: saline with Tween-80
[8] = dose: 400.0 mg/kg/injection, schedule: Q04DX002 (ip), vehicle: saline with Tween-80
[9] = dose: 25.0 mg/kg/injection, schedule: Q01DX009 (ip), vehicle: saline with Tween-80
[10] = dose: 50.0 mg/kg/injection, schedule: Q01DX009 (ip), vehicle: saline with Tween-80
[11] = dose: 60.0 mg/kg/injection, schedule: Q01DX005 (ip), vehicle: saline with Tween-80
[12] = dose: 120.0 mg/kg/injection, schedule: Q01DX005 (ip), vehicle: saline with Tween-80
[13] = dose: 240.0 mg/kg/injection, schedule: Q01DX005 (ip), vehicle: saline with Tween-80
[14] = dose: 100.0 mg/kg/injection, schedule: Q01DX001 (ip), vehicle: Klucel (hydroxypropylcellulose) (HPC)
[15] = dose: 200.0 mg/kg/injection, schedule: Q01DX001 (ip), vehicle: Klucel (hydroxypropylcellulose) (HPC)
[16] = dose: 400.0 mg/kg/injection, schedule: Q01DX001 (ip), vehicle: Klucel (hydroxypropylcellulose) (HPC)
[17] = dose: 100.0 mg/kg/injection, schedule: Q01DX009 (ip), vehicle: saline with Tween-80
[18] = dose: 200.0 mg/kg/injection, schedule: Q01DX009 (ip), vehicle: saline with Tween-80

`NC(N)=N/N=C/c1ccc(-c2cc3ccc(/C=N/N=C(N)N)cc3s2)cc1` was tested, and the T/C [1] was 114 % of control, the T/C [2] was 116 % of control and the T/C [3] was 121 % of control. For the same compound, the T/C [4] was 118 % of control and the T/C [5] was 107 % of control.

`O=C(O)CCc1ccccc1Br` was tested, and the T/C [6] was 101 % of control, the T/C [7] was 95 % of control and the T/C [8] was 100 % of control.

`NNC(=O)c1ccccc1` was tested, and the T/C [9] was 104 % of control, the T/C [10] was 113 % of control and the T/C (dose: 50.0 mg/kg/injection, schedule: Q04DX003 (ip), vehicle: saline with Tween-80) was 95 % of control. The T/C (dose: 100.0 mg/kg/injection, schedule: Q04DX003 (ip), vehicle: saline with Tween-80) was 100 % of control.

`COc1cc2c(cc1OC)C1C(=O)c3c(O)cc4c(c3OC1CO2)C=CC(C)(C)O4` (stereo not given) was tested, and the T/C [1] was 98 % of control, the T/C [2] was 100 % of control and the T/C [3] was 107 % of control. The T/C [4] was 107 % of control, the T/C [5] was 111 % of control and the T/C (dose: 400.0 mg/kg/injection, schedule: Q01DX005 (ip), vehicle: Klucel (hydroxypropylcellulose) (HPC)) was 111 % of control.

`O=S(=O)(Nc1ccccc1F)c1ccc(F)cc1` was tested, and the T/C [11] was 106 % of control, the T/C [12] was 100 % of control and the T/C [13] was 106 % of control.

`Cc1ccc(S(=O)(=O)N/N=C/c2c(Cl)nc3n2CCS3)cc1` was tested, and the T/C [14] was 101 % of control, the T/C [15] was 94 % of control and the T/C [16] was 94 % of control.

`CNC(=O)OCCN(CCOC(=O)NC)C(=O)N1c2ccccc2Sc2ccccc21` was tested, and the T/C (dose: 12.5 mg/kg/injection, schedule: Q01DX009 (ip), vehicle: saline with Tween-80) was 94 % of control, the T/C [9] was 98 % of control and the T/C [10] was 91 % of control. For the same compound, the T/C [17] was 100 % of control and the T/C [18] was 100 % of control.

In the case of `CC1C(=O)NC(=O)CC1c1ccccc1` (stereo not given), the T/C [6] is reported as 100 % of control, the T/C [7] is reported as 103 % of control and the T/C [8] is reported as 95 % of control.

In the case of `Cc1nnc2sc(/C=C/c3ccccc3)nn12`, the T/C [14] is reported as 101 % of control, the T/C [15] is reported as 102 % of control and the T/C [16] is reported as 101 % of control.

`Cc1ccc(S(=O)(=O)CC(=O)c2ccccc2)cc1` was tested, and the T/C (dose: 100.0 mg/kg/injection, schedule: Q01DX009 (ip), vehicle: Klucel (hydroxypropylcellulose) (HPC)) was 108 % of control, the T/C (dose: 200.0 mg/kg/injection, schedule: Q01DX009 (ip), vehicle: Klucel (hydroxypropylcellulose) (HPC)) was 108 % of control and the T/C (dose: 400.0 mg/kg/injection, schedule: Q01DX009 (ip), vehicle: Klucel (hydroxypropylcellulose) (HPC)) was 104 % of control.

For `CCC(O)C1(C#Cc2ccccc2)Sc2ccccc2N1C` (stereo not given), the T/C [11] was 107 % of control, the T/C [12] was 110 % of control and the T/C [13] was 110 % of control.

For `C=CCC1(CC=C)CC1OCC` (stereo not given), the T/C (dose: 50.0 mg/kg/injection, schedule: Q01DX005 (ip), vehicle: saline) was 98 % of control, the T/C (dose: 100.0 mg/kg/injection, schedule: Q01DX005 (ip), vehicle: saline) was 100 % of control and the T/C (dose: 200.0 mg/kg/injection, schedule: Q01DX005 (ip), vehicle: saline) was 100 % of control.

`NC(=S)N/N=C\c1ncccc1OCc1cccc(N)c1` was tested, and the T/C (dose: 12.5 mg/kg/injection, schedule: Q01DX009 (ip), vehicle: distilled water + Tween-80) was 122 % of control, the T/C (dose: 12.5 mg/kg/injection, schedule: Q01DX009 (ip), vehicle: other) was 111 % of control and the T/C (dose: 25.0 mg/kg/injection, schedule: Q01DX009 (ip), vehicle: other) was 120 % of control and 124 % of control. The T/C (dose: 200.0 mg/kg/injection, schedule: Q01DX009 (ip), vehicle: distilled water + Tween-80) was 116 % of control, the T/C (dose: 200.0 mg/kg/injection, schedule: Q01DX009 (ip), vehicle: other) was 152 % of control and the T/C (dose: 400.0 mg/kg/injection, schedule: Q01DX009 (ip), vehicle: distilled water + Tween-80) was 100 % of control.

`O=C(Nc1ccccc1)Oc1ccc(/C=N/Sc2cccc([N+](=O)[O-])c2)cc1` was tested, and the T/C [10] was 87 % of control, the T/C [17] was 101 % of control and the T/C [18] was 106 % of control.

For `CCOC(=O)N(CCF)N=O`, the T/C (dose: 3.12 mg/kg/injection, schedule: Q01DX001 (ip), vehicle: saline with Tween-80) was 108 % of control and 96 % of control, the T/C (dose: 6.25 mg/kg/injection, schedule: Q01DX001 (ip), vehicle: saline with Tween-80) was 108 % of control and 114 % of control and the T/C (dose: 12.5 mg/kg/injection, schedule: Q01DX001 (ip), vehicle: saline with Tween-80) was 124 % of control. For the same compound, the T/C (dose: 25.0 mg/kg/injection, schedule: Q01DX001 (ip), vehicle: saline with Tween-80) was 117 % of control.

With `COc1cc2c(c3oc4c(O)cccc4c(=O)c13)CC(C(C)(O)CCl)O2` (stereo not given) the T/C (dose: 2.0 mg/kg/injection, schedule: Q01DX009 (ip), vehicle: saline + alcohol) was 113 % of control and the T/C (dose: 4.0 mg/kg/injection, schedule: Q01DX009 (ip), vehicle: saline + alcohol) was 112 % of control.

For `N/C(=N\O)c1ccc2oc(/C=C/c3cc4cc(/C(N)=N\O)ccc4o3)cc2c1`, the T/C (dose: 50.0 mg/kg/injection, schedule: Q01DX009 (ip), vehicle: saline) was 100 % of control, the T/C (dose: 100.0 mg/kg/injection, schedule: Q01DX009 (ip), vehicle: saline) was 97 % of control and the T/C (dose: 200.0 mg/kg/injection, schedule: Q01DX009 (ip), vehicle: saline) was 91 % of control.

With `O=C1CC2COc3ccccc3C2=NN1c1ccccc1` (stereo not given) the T/C [11] was 105 % of control, the T/C [12] was 94 % of control and the T/C [13] was 91 % of control.
